Laboratory results published in ChEMBL document CHEMBL5131468, “Systematic comparison of activity and mechanism of antimicrobial peptides against nosocomial pathogens” (Eur J Med Chem, 2022).
≈ marks a conversion by molar mass, not a printed value. Calls of active or inactive are those of the source. The rule behind the calls is not given here. Peptide text beside a SMILES is read from it.

Tests used:
[1] = system: Salmonella typhimurium; assay: Antibacterial activity against Salmonella enterica serovar typhimurium SL1344 assessed as inhibition of bacterial growth incubated for 90 mins by serial dilution assay; assay type: functional, Salmonella enterica subsp. enterica serovar Typhimurium
[2] = system: Cell membrane; assay: Induction of membrane depolarization in Enterococcus faecalis ATCC 29212 at 0.25 times MIC after 60 mins by DiOC23 dye based based flow cytometry; assay type: subcellular
[3] = system: Staphylococcus aureus; assay: Induction of morphological changes in Staphylococcus aureus ATCC 29213 at 0.5 to 2 times MIC incubated for 90 mins by Helium ion microscopy; assay type: functional, organism-based
[4] = system: Cell membrane; assay: Induction of membrane depolarization in Enterococcus faecalis ATCC 29212 at 0.5 times MIC after 60 mins by DiOC23 dye based based flow cytometry relative to control
[5] = system: Cell membrane; assay: Induction of outer membrane permeabilization in Escherichia coli BAA3051 assessed as increase in NPN fluorescence intensity incubated for 15 mins by NPN-dye based fluorescence analysis
[6] = system: Staphylococcus aureus; assay: Bactericidal activity against Methicillin resistant Staphylococcus aureus ATCC 33591 incubated for 90 mins by serial dilution assay; assay type: functional
[7] = system: Cell membrane; assay: Induction of outer membrane permeabilization in Salmonella enterica serovar typhimurium SL1344 assessed as increase in NPN fluorescence intensity incubated for 15 mins by NPN-dye based fluorescence analysis; assay type: subcellular; conditions: Salmonella enterica subsp. enterica serovar Typhimurium
[8] = system: Escherichia coli; assay: Antibacterial activity against Escherichia coli ATCC 25922 assessed as inhibition of bacterial growth incubated for 90 mins by serial dilution assay; assay type: functional
[9] = system: Cell membrane; assay: Induction of membrane depolarization in Staphylococcus aureus ATCC 29213 at 0.25 times MIC after 60 mins by DiOC23 dye based based flow cytometry; assay type: subcellular
[10] = system: Salmonella typhimurium; assay: Bactericidal activity against Salmonella enterica serovar typhimurium SL1344 incubated for 90 mins by serial dilution assay; assay type: functional, Salmonella enterica subsp. enterica serovar Typhimurium
[11] = system: Enterococcus faecalis; assay: Antibacterial activity against Enterococcus faecalis ATCC 29212 assessed as inhibition of bacterial growth incubated for 90 mins by serial dilution assay; assay type: functional
[12] = system: Escherichia coli; assay: Bactericidal activity against Escherichia coli BAA3051 incubated for 90 mins by serial dilution assay; assay type: functional
[13] = system: Cell membrane; assay: Induction of inner membrane damage in Escherichia coli ATCC 25922 assessed disruption of membrane integrity at 0.5 to 256 ug/ml and measured after 90 mins by propidium iodide staining based flow cytometry; assay type: subcellular; conditions: dose 0.5-256 µg/ml
[14] = system: Cell membrane; assay: Induction of membrane depolarization in Salmonella enterica serovar typhimurium SL1344 at 0.25 to 0.5 times MIC after 60 mins by DiOC23 dye based based flow cytometry; assay type: subcellular; conditions: Salmonella enterica subsp. enterica serovar Typhimurium
[15] = system: Escherichia coli; assay: Antibacterial activity against Escherichia coli BAA3051 assessed as inhibition of bacterial growth incubated for 90 mins by serial dilution assay; assay type: functional
[16] = system: Escherichia coli; assay: Bactericidal activity against Escherichia coli ATCC 25922 incubated for 90 mins by serial dilution assay; assay type: functional
[17] = system: Cell membrane; assay: Induction of outer membrane permeabilization in Escherichia coli ATCC 25922 assessed as increase in NPN fluorescence intensity incubated for 15 mins by NPN-dye based fluorescence analysis; assay type: subcellular
[18] = system: HEK293; assay: Cytotoxicity against human HEK293 cells assessed as decrease in live cells at 250 ug/ml incubated for 2 hrs by MTS assay; assay type: toxicity, cell-based; conditions: hek293, 2 h, dose 250 µg/ml
[19] = system: Staphylococcus aureus; assay: Bactericidal activity against Staphylococcus aureus ATCC 29213 incubated for 90 mins by serial dilution assay; assay type: functional
[20] = system: Cell membrane; assay: Induction of membrane depolarization in Staphylococcus aureus ATCC 29213 at 0.5 times MIC after 60 mins by DiOC23 dye based based flow cytometry relative to control; assay type: subcellular
[21] = system: Cell membrane; assay: Induction of membrane depolarization in Escherichia coli ATCC 25922 at 0.25 to 0.5 times MIC after 60 mins by DiOC23 dye based based flow cytometry; assay type: subcellular
[22] = system: Enterococcus faecalis; assay: Bactericidal activity against Enterococcus faecalis ATCC 29212 incubated for 90 mins by serial dilution assay; assay type: functional
[23] = system: Staphylococcus aureus; assay: Antibacterial activity against Methicillin resistant Staphylococcus aureus ATCC 33591 assessed as inhibition of bacterial growth incubated for 90 mins by serial dilution assay; assay type: functional
[24] = system: Cell membrane; assay: Induction of membrane depolarization in Escherichia coli ATCC 25922 at 0.5 times MIC after 60 mins by DiOC23 dye based based flow cytometry relative to control
[25] = system: Cell membrane; assay: Induction of membrane depolarization in Salmonella enterica serovar typhimurium SL1344 at 0.5 times MIC after 60 mins by DiOC23 dye based based flow cytometry relative to control; conditions: Salmonella enterica subsp. enterica serovar Typhimurium
[26] = system: HEK293; assay: Cytotoxicity against human HEK293 cells assessed as decrease in live cells upto 125 ug/ml incubated for 2 hrs by MTS assay; assay type: toxicity, cell-based; conditions: hek293, 2 h, dose < 125 µg/ml
[27] = system: Staphylococcus aureus; assay: Antibacterial activity against Staphylococcus aureus ATCC 29213 assessed as inhibition of bacterial growth incubated for 90 mins by serial dilution assay; assay type: functional
[28] = system: Cell membrane; assay: Induction of inner membrane damage in Staphylococcus aureus ATCC 29213 assessed disruption of membrane integrity at 0.5 to 256 ug/ml and measured after 90 mins by propidium iodide staining based flow cytometry; assay type: subcellular; conditions: dose 0.5-256 µg/ml
[29] = system: Escherichia coli; assay: Induction of morphological changes in Escherichia coli ATCC 25922 assessed as leakage in intracellular contents at 0.5 times MIC incubated for 90 mins by Helium ion microscopy; assay type: functional, organism-based
[30] = system: Lipid bilayer; assay: Induction of membrane disruption in Gram-negative bacterial cell membrane mimic POPE:POPG(7:3) large unilamellar vesicle assessed as carboxyfluorescein leakage by fluorescence analysis
[31] = system: HEK293; assay: Cytotoxicity against human HEK293 cells assessed as increase in LDH release at 31.25 ug/ml incubated for 2 hrs by LDH assay; assay type: toxicity, cell-based; conditions: hek293, 2 h, dose 31.25 µg/ml
[32] = system: Escherichia coli; assay: Induction of morphological changes in Escherichia coli ATCC 25922 assessed as leakage in intracellular contents at 0.5 to 2 times MIC incubated for 90 mins by Helium ion microscopy; assay type: functional, organism-based
[33] = system: HEK293; assay: Cytotoxicity against human HEK293 cells assessed as decrease in live cells at 15.6 ug/ml incubated for 2 hrs by MTS assay; assay type: toxicity, cell-based; conditions: hek293, 2 h, dose 15.6 µg/ml
[34] = system: Escherichia coli; assay: Induction of morphological changes in Escherichia coli ATCC 25922 assessed as membrane collapse at 0.5 to 2 times MIC incubated for 90 mins by Helium ion microscopy; assay type: functional, organism-based
[35] = system: Escherichia coli; assay: Induction of morphological changes in Escherichia coli ATCC 25922 at 0.5 times MIC incubated for 90 mins by Helium ion microscopy; assay type: functional, organism-based
[36] = system: Staphylococcus aureus; assay: Induction of morphological changes in Staphylococcus aureus ATCC 29213 incubated for 90 mins by Helium ion microscopy; assay type: functional, organism-based
[37] = Salmonella enterica subsp. enterica serovar Typhimurium

Row | Molecule | MIC ([1]; SL1344, 1.5 h) [µg/mL] | Activity [3] | Activity [4] [%] | Activity [5] | MBC ([6]; ATCC 33591, 1.5 h) [µg/mL] | Activity [7] | MIC ([8]; ATCC 25922, 1.5 h) [µg/mL] | MBC ([10]; SL1344, 1.5 h) [µg/mL] | MIC ([11]; ATCC 29212, 1.5 h) [µg/mL] | MBC ([12]; BAA3051, 1.5 h) [µg/mL] | Activity [13] | Activity [14] [%] | MIC ([15]; BAA3051, 1.5 h) [µg/mL] | MBC ([16]; ATCC 25922, 1.5 h) [µg/mL] | Activity [17] | MBC ([19]; ATCC 29213, 1.5 h) [µg/mL] | Activity [20] [%] | Activity [21] [%] | MBC ([22]; ATCC 29212, 1.5 h) [µg/mL] | MIC ([23]; ATCC 33591, 1.5 h) [µg/mL] | further results
1 | CC[C@H](C)[C@H](NC(=O)[C@H](CO)NC(=O)[C@H](CCCCN)NC(=O)[C@H](Cc1c[nH]c2ccccc12)NC(=O)[C@H](CC(C)C)NC(=O)[C@H](C)N)C(=O)N[C@@H](CC(C)C)C(=O)N[C@@H](CCCCN)C(=O)N[C@@H](CC(N)=O)C(=O)N[C@H](C(=O)NCC(=O)N[C@@H](CCCCN)C(=O)N[C@@H](C)C(=O)N[C@@H](C)C(=O)NCC(=O)N[C@@H](CCCCN)C(=O)N[C@@H](C)C(=O)N[C@H](C(=O)N[C@@H](CC(C)C)C(=O)O)C(C)C)C(C)C (H-ALWKSILKNVGKAAGKAVL-OH) | 250 (≈ 127 µM) | Active | 40 | Active | > 250 | Active | 31.3 (≈ 15.9 µM) | 250 (≈ 127 µM) | 250 (≈ 127 µM) | 31.3 (≈ 15.9 µM) | Active | 30 | 31.3 (≈ 15.9 µM) | 31.3 (≈ 15.9 µM) | Active | > 125 | 40 | 30 | 250 (≈ 127 µM) | > 125 | Activity [2]: Active; Activity [9]: Active; Activity [18]: Toxic; Activity [24]: 40%; Activity [25]: 40%; Activity [26]: Toxic; MIC ([27]; ATCC 29213, 1.5 h): 62.5 µg/mL (≈ 31.8 µM)
2 | CC[C@H](C)[C@H](NC(=O)[C@H](CCCCN)NC(=O)[C@@H](NC(=O)[C@H](Cc1ccccc1)NC(=O)[C@H](C)NC(=O)[C@H](CCCCN)NC(=O)CNC(=O)[C@H](Cc1ccccc1)NC(=O)[C@H](CCCCN)NC(=O)[C@H](CCCCN)NC(=O)[C@H](C)NC(=O)[C@H](CCCCN)NC(=O)[C@H](CCCCN)NC(=O)[C@H](CC(C)C)NC(=O)[C@H](Cc1ccccc1)NC(=O)[C@@H](N)CCCCN)C(C)C)C(=O)N[C@@H](CC(C)C)C(=O)O (H-KFLKKAKKFGKAFVKIL-OH) | 7.8 (≈ 3.91 µM) | Active | 40 | Active | > 125 | Active | 15.6 (≈ 7.82 µM) | 7.8 (≈ 3.91 µM) | 31.3 (≈ 15.7 µM) | 7.8 (≈ 3.91 µM) | Active | 30 | 7.8 (≈ 3.91 µM) | 15.6 (≈ 7.82 µM) | Active | 31.3 (≈ 15.7 µM) | 40 | 30 | 125 (≈ 62.7 µM) | > 125 | Activity [28]: Active; Activity [29]: Active; Activity [30]: 20%; Activity [31]: Toxic; Activity [32]: Active; Activity [33]: Toxic; Activity [34]: Active; Activity [35]: Active; Activity [24]: 40%; Activity [25]: 40%; Activity [36]: Active; MIC ([27]; ATCC 29213, 1.5 h): 15.6 µg/mL (≈ 7.82 µM)
3 | GENTAMICIN | – | – | – | – | – | – | – | – | – | – | – | – | – | – | – | – | – | – | – | – | MIC [1, 37]: 12.5 µg/mL; MBC [6]: 62.5 µg/mL; MIC [8]: 0.9 µg/mL; MBC [10, 37]: 12.5 µg/mL; MIC [11]: 3.9 µg/mL; MBC [12]: 1.9 µg/mL; MIC [15]: 1.9 µg/mL; MBC [16]: 6.25 µg/mL; MBC [19]: 6.25 µg/mL; MBC [22]: 31.3 µg/mL; MIC [23]: 7.8 µg/mL; MIC [27]: 3.9 µg/mL
